Experiments:
cIAP2-BIR3 = target: T1, cIAP2-BIR3 (Homo sapiens, UniProt Q13489); test: cIAP2-BIR3 fluorescence polarization binding assay; settings: FP, probe AbuRPFK-5FAM (SM5F) 5 nM, cIAP2-BIR3 80 nM, 60 min at 25° C.
T1 construct: cIAP2-BIR3; purchased Reaction Biology APT-11-372
In short: (§1)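 Fluorescence polarization competition using 5-carboxyfluorescein-labelled peptide probe AbuRPFK-5FAM; protein and compound preincubated 15 min, probe added, then 60 min at 25° C.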

XIAP-BIR3 = target: T2, XIAP-BIR3 (Homo sapiens, UniProt P98170); test: XIAP-BIR3 fluorescence polarization binding assay; settings: FP, probe AbuRPFK-5FAM (SM5F) 5 nM, XIAP-BIR3 40 nM, 60 min at 25° C.
T2 construct: XIAP-BIR3; purchased Reaction Biology APT-11-374
In short: as §1

cIAP1-BIR3 = target: T3, cIAP1-BIR3 (Homo sapiens, UniProt Q13490); test: cIAP1-BIR3 fluorescence polarization binding assay; settings: FP, probe AbuRPFK-5FAM (SM5F) 5 nM, cIAP1-BIR3 15 nM, 60 min at 25° C.
T3 construct: cIAP1-BIR3; purchased Reaction Biology APT-11-370
In short: as §1

T3 sequence (Q13490 253-363 limits assumed): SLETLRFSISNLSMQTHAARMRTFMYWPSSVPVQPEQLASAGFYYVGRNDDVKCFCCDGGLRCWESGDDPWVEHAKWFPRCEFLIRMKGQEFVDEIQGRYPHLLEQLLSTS
T2 sequence (P98170 241-356 limits assumed): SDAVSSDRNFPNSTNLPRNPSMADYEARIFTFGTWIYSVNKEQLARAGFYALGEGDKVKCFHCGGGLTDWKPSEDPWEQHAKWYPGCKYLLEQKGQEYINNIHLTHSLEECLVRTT
T1 sequence (Q13489 238-349 limits assumed): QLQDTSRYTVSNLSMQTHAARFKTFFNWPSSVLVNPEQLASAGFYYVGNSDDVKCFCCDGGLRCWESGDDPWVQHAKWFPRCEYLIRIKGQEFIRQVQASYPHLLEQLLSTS

Row | IC50 (cIAP2-BIR3) [nM] | IC50 (XIAP-BIR3) [nM] | IC50 (cIAP1-BIR3) [nM] | Compound
1 | 10 to 100 | 10 to 100 | 1 to 10 | CC[C@H](NC(=O)[C@H](C)NC)C(=O)N1CCC[C@H]1C(=O)N[C@@H]1CCCc2c(NC(=O)c3cccc4c3CCC[C@H]4NC(=O)[C@@H]3CCCN3C(=O)[C@H](CC)NC(=O)[C@H](C)NC)cccc21 [Compound VII-C, (2S)-1-[(2S)-2-[(2S)-2-(methylamino)propanamido]butanoyl]-N-[(1R)-5-[[(5R)-5-[(2S)-1-[(2S)-2-[(2S)-2-(methylamino)propanamido]butanoyl]pyrrolidine-2-amido]-5,6,7,8-tetrahydmnaphthalen-1-yl]carbamoyl]-1,2,3,4-tetrahydmnaphthalen-1-yl]pyrrolidine-2-carboxamide]
2 | 10 to 100 | 10 to 100 | 1 to 10 | CN[C@@H](C)C(=O)N[C@H](C(=O)N1CCC[C@H]1C(=O)N[C@@H]1CCCc2c(-c3ccc(-c4cccc5c4CCC[C@H]5NC(=O)[C@@H]4CCCN4C(=O)[C@@H](NC(=O)[C@H](C)NC)C4CCCCC4)cc3)cccc21)C1CCCCC1 [Compound III, (2S)-1-[(2S)-2-Cyclohexyl-2-[(2S)-2-(methylamino)propanamido]acetyl]-N-[(1R)-5-[4-[(5R)-5-[(2S)-1-[(2S)-2-cyclohexyl-2-[(2S)-2-(methylamino)propanamido]acetyl]pyrrolidine-2-amido]-5,6,7,8-tetrahydronaphthalen-1-yl]phenyl]-1,2,3,4-tetrahydronaphthalen-1-yl]pyrrolidine-2-carboxamide]
3 | 10 to 100 | 10 to 100 | 1 to 10 | CN[C@@H](C)C(=O)N[C@H](C(=O)N1CCC[C@H]1C(=O)N[C@@H]1CCOc2c(-c3cccc4c3OCC[C@H]4NC(=O)[C@@H]3CCCN3C(=O)[C@@H](NC(=O)[C@H](C)NC)C3CCOCC3)cccc21)C1CCOCC1 [Compound V-Q, (S)-1-((S)-2-((S)-2-(methylamino)propanamido)-2-(tetrahydro-2H-pyran-4-yl)acetyl)-N-((4R,4′R)-4′-((S)-1-((S)-2-((S)-2-(methylamino)propanamido)-2-(tetrahydro-2H-pyran-4-yl)acetyl)pyrrolidine-2-carboxamido)-[8,8′-bichroman]-4-yl)pyrrolidine-2-carboxamide]
4 | 10 to 100 | 10 to 100 | 1 to 10 | CN[C@@H](C)C(=O)N[C@H](C(=O)N1CCC[C@H]1C(=O)N[C@@H]1CCOc2c(-c3cccc4c3OCC[C@H]4NC(=O)[C@@H]3CCCN3C(=O)[C@@H](NC(=O)[C@H](C)NC)C(C)C)cccc21)C(C)C [Compound V-C, (2S)-1-[(2S)-3-methyl-2-[(2S)-2-(methylamino)propanamido]butanoyl]-N-[(4R)-8-[(4R)-4-[(2S)-1-[(2S)-3-methyl-2-[(2S)-2-(methylamino)propanamido]butanoyl]pyrrolidine-2-amido]-3,4-dihydro-2H-1-benzopyran-8-yl]-3,4-dihydro-2H-1-benzopyran-4-yl]pyrrolidine-2-carboxamide]
5 | 10 to 100 | 10 to 100 | 1 to 10 | CN[C@@H](C)C(=O)N[C@H](C(=O)N1CCC[C@H]1C(=O)N[C@@H]1CCc2c(-c3cccc4c3CC[C@H]4NC(=O)[C@@H]3CCCN3C(=O)[C@@H](NC(=O)[C@H](C)NC)C3CCOCC3)cccc21)C1CCOCC1 [Compound V-R, (S)-1-((S)-2-((S)-2-(methylamino)propanamido)-2-(tetrahydro-2H-pyran-4-yl)acetyl)-N-((1R,1′R)-1′-((S)-1-((S)-2-((S)-2-(methylamino)propanamido)-2-(tetrahydro-2H-pyran-4-yl)acetyl)pyrrolidine-2-carboxamido)-2,2′,3,3′-tetrahydro-1H,1′H-[4,4′-biinden]-1-yl)pyrrolidine-2-carboxamide]
6 | 10 to 100 | 10 to 100 | 1 to 10 | CN[C@@H](C)C(=O)N[C@H](C(=O)N1CCC[C@H]1C(=O)N[C@@H]1CCCc2c(Oc3cccc4c3CCC[C@H]4NC(=O)[C@@H]3CCCN3C(=O)[C@@H](NC(=O)[C@H](C)NC)C3CCOCC3)cccc21)C1CCOCC1 [Compound X-C, (S)-1-((S)-2-((S)-2-(methylamino)propanamido)-2-(tetrahydro-2H-pyran-4-yl)acetyl)-N—((R)-5-(((R)-5-((S)-1-((S)-2-((S)-2-(methylamino)propanamido)-2-(tetrahydro-2H-pyran-4-yl)acetyl)pyrrolidine-2-carboxamido)-5,6,7,8-tetrahydronaphthalen-1-yl)oxy)-1,2,3,4-tetrahydronaphthalen-1-yl)pyrrolidine-2-carboxamide]
7 | 1 to 10 | 10 to 100 | 1 to 10 | CN[C@@H](C)C(=O)N[C@H](C(=O)N1CCC[C@H]1C(=O)N[C@@H]1CCCc2c1cccc2N1CC2CN(c3cccc4c3CCC[C@H]4NC(=O)[C@@H]3CCCN3C(=O)[C@@H](NC(=O)[C@H](C)NC)C3CCCCC3)CC2C1)C1CCCCC1 (stereo partly drawn) [Compound VIII, (2S)-1-[(2S)-2-cyclohexyl-2-[(2S)-2-(methylamino)propanamido]acetyl]-N-[(1R)-5-[5-[(5R)-5-[(2S)-1-[(2S)-2-cyclohexyl-2-[(2S)-2-(methylamino)propanamido]acetyl]pyrrolidine-2-amido]-5,6,7,8-tetrahydronaphthalen-1-yl]-hexahydropyrrolo[3,4-c]pyrrol-2-yl]-1,2,3,4-tetrahydmnaphthalen-1-yl]pyrrolidine-2-carboxamide]
8 | 1 to 10 | 10 to 100 | 1 to 10 | CC[C@H](NC(=O)[C@H](C)NC)C(=O)N1CCC[C@H]1C(=O)N[C@@H]1CCCc2c(OCCCCCOc3cccc4c3CCC[C@H]4NC(=O)[C@@H]3CCCN3C(=O)[C@H](CC)NC(=O)[C@H](C)NC)cccc21 [Compound I-D, (2S)-1-[(2S)-2-[(2S)-2-(methylamino)propanamido]butanoyl]-N-[(1R)-5-[(5-[[(5R)-5-[(2S)-1-[(2S)-2-[(2S)-2-(methylamino)propanamido]butanoyl]pyrrolidine-2-amido]-5,6,7,8-tetrahydronaphthalen-1-yl]oxy]pentyl)oxy]-1,2,3,4-tetrahydronaphthalen-1-yl]pyrrolidine-2-carboxamide]
9 | 10 to 100 | 10 to 100 | 1 to 10 | CN[C@@H](C)C(=O)N[C@H](C(=O)N1CCC[C@H]1C(=O)N[C@@H]1CCCc2c(-c3cccc(-c4cccc5c4CCC[C@H]5NC(=O)[C@@H]4CCCN4C(=O)[C@@H](NC(=O)[C@H](C)NC)C(C)(C)C)c3)cccc21)C(C)(C)C [Compound III-F, (2S)-1-[(2S)-3,3-dimethyl-2-[(2S)-2-(methylamino)propanamido]butanoyl]-N-[(1R)-5-[3-[(5R)-5-[(2S)-1-[(2S)-3,3-dimethyl-2-[(2S)-2-(methylamino)propanamido]butanoyl]pyrrolidine-2-amido]-5,6,7,8-tetrahydronaphthalen-1-yl]phenyl]-1,2,3,4-tetrahydronaphthalen-1-yl]pyrrolidine-2-carboxamide]
10 | 1 to 10 | 10 to 100 | 1 to 10 | CN[C@@H](C)C(=O)N[C@H](C(=O)N1C[C@@H](O)C[C@H]1C(=O)N[C@@H]1CCCc2c(-c3ccc(-c4cccc5c4CCC[C@H]5NC(=O)[C@@H]4C[C@H](O)CN4C(=O)[C@@H](NC(=O)[C@H](C)NC)C4CCCCC4)cc3)cccc21)C1CCCCC1 [Compound III-K, (2S,4S)-1-[(2S)-2-cyclohexyl-2-[(2S)-2-(methylamino)propanamido]acetyl]-N-[(1R)-5-[4-[(5R)-5-[(2S,4S)-1-[(2S)-2-cyclohexyl-2-[(2S)-2-(methylamino)propanamido]acetyl]-4-hydroxypyrrolidine-2-amido]-5,6,7,8-tetrahydmnaphthalen-1-yl]phenyl]-1,2,3,4-tetrahydronaphthalen-1-yl]-4-hydroxypyrrolidine-2-carboxamide]
11 | 10 to 100 | 10 to 100 | 1 to 10 | CN[C@@H](C)C(=O)N[C@H](C(=O)N1C[C@@H](O)C[C@H]1C(=O)N[C@@H]1CCCc2c(OC/C=C/COc3cccc4c3CCC[C@H]4NC(=O)[C@@H]3C[C@H](O)CN3C(=O)[C@@H](NC(=O)[C@H](C)NC)C3CCCCC3)cccc21)C1CCCCC1 [Compound I-E, (2S,4S)-1-[(2S)-2-cyclohexyl-2-[(2S)-2-(methylamino)propanamido]acetyl]-N-[(1R)-5-[[(2E)-4-[[(5R)-5-[(2S,4S)-1-[(2S)-2-cyclohexyl-2-[(2S)-2-(methylamino)propanamido]acetyl]-4-hydroxypyrrolidine-2-amido]-5,6,7,8-tetrahydronaphthalen-1-yl]oxy]but-2-en-1-yl]oxy]-1,2,3,4-tetrahydronaphthalen-1-yl]-4-hydroxypyrrolidine-2-carboxamide]
12 | 10 to 100 | 10 to 100 | 1 to 10 | CN[C@@H](C)C(=O)N[C@H](C(=O)N1CCC[C@H]1C(=O)N[C@@H]1CCCc2c(-c3cccc4c3CCC[C@H]4NC(=O)[C@@H]3CCCN3C(=O)[C@@H](NC(=O)[C@H](C)NC)C(C)(C)C)cccc21)C(C)(C)C [Compound V-J, (2S)-1-[(2S)-3,3-dimethyl-2-[(2S)-2-(methylamino)propanamido]butanoyl]-N-[(5R,5′R)-5′-[(2S)-[(2S)-3,3-dimethyl-2-[(2S)-2-(methylamino)propanamido]butanoyl]pyrolidine-2-amido]-5H,5′ H,6H,6′H,7H,7′H,8H,8′ H-[1,1′-binaphthalen]-5-yl]pyrrolidine-2-carboxamide]

Reference: patent US20220220152A1, “BIVALENT ANTAGONISTS OF INHIBITORS OF APOPTOSIS PROTEINS” (Hepagene Therapeutics (HK) Limited, priority 2019, published 2022)
